Several values for one entry are separate records, joined by “and”; a condition that tells them apart may be missing. Equal values may be shown once.
Conditions: Calculated from knudsen effusion weight loss

c1ccc(-c2cc(-c3ccccc3)cc(-c3ccccc3)c2)cc1 [1,3,5-triphenylbenzene]
Crystal
Conditions	vapor or sublimation pressure
408.04 K	0.000144 kPa
408.05 K	0.0001488 kPa
408.16 K	0.0001536 kPa
413.04 K	0.0002384 kPa
413.05 K	0.000247 kPa
413.16 K	0.0002528 kPa
418.03 K	0.0003878 kPa
418.05 K	0.0004034 kPa
418.15 K	0.0004157 kPa
423.03 K	0.0006219 kPa and 0.0006345 kPa
423.04 K	0.0006477 kPa
423.16 K	0.0006722 kPa
428.03 K	0.0009832 kPa
428.04 K	0.001026 kPa
428.16 K	0.001081 kPa

CCn1cc[n+](C)c1.O=S(=O)([N-]S(=O)(=O)C(F)(F)F)C(F)(F)F
Liquid
Conditions	vapor or sublimation pressure
433.05 K	2.8e-06 kPa
433.1 K	3e-06 kPa
438.04 K	4.2e-06 kPa
438.1 K	4.3e-06 kPa
438.12 K	4.5e-06 kPa
443.04 K	5.9e-06 kPa
443.09 K	6.3e-06 kPa
443.12 K	6.3e-06 kPa
448.03 K	8.4e-06 kPa
448.09 K	8.8e-06 kPa
448.12 K	8.9e-06 kPa
453.03 K	1.18e-05 kPa
453.09 K	1.23e-05 kPa
453.11 K	1.25e-05 kPa and 1.21e-05 kPa
453.12 K	1.25e-05 kPa
458.01 K	1.71e-05 kPa
458.02 K	1.66e-05 kPa
458.09 K	1.72e-05 kPa
458.11 K	1.76e-05 kPa
458.13 K	1.72e-05 kPa
463.05 K	2.29e-05 kPa
463.08 K	2.39e-05 kPa
463.1 K	2.45e-05 kPa and 2.42e-05 kPa
463.12 K	2.38e-05 kPa
463.13 K	2.39e-05 kPa
468.04 K	3.16e-05 kPa
468.08 K	3.27e-05 kPa
468.1 K	3.41e-05 kPa
468.11 K	3.33e-05 kPa
468.12 K	3.29e-05 kPa
468.13 K	3.32e-05 kPa
473.04 K	4.32e-05 kPa
473.07 K	4.5e-05 kPa
473.1 K	4.61e-05 kPa
473.12 K	4.51e-05 kPa
473.13 K	4.53e-05 kPa
473.14 K	4.69e-05 kPa
478.04 K	5.84e-05 kPa
478.07 K	6.13e-05 kPa
478.09 K	6.25e-05 kPa
478.12 K	6.08e-05 kPa and 6.16e-05 kPa
478.13 K	6.12e-05 kPa
483.04 K	7.83e-05 kPa
483.06 K	8.23e-05 kPa
483.08 K	8.4e-05 kPa
483.11 K	8.32e-05 kPa and 8.24e-05 kPa
483.12 K	8.26e-05 kPa
488.05 K	0.0001107 kPa
488.06 K	0.0001105 kPa
488.08 K	0.000112 kPa
488.11 K	0.0001112 kPa and 0.0001115 kPa
493.05 K	0.0001465 kPa
493.07 K	0.0001477 kPa
493.1 K	0.0001477 kPa
493.11 K	0.0001477 kPa
498.1 K	0.0001931 kPa
498.11 K	0.0001943 kPa
503.1 K	0.0002516 kPa and 0.0002533 kPa

Source: the NIST ThermoML archive (doi:10.1016/j.jct.2018.07.004)
